The text below walks through data of patent publication US11098040B2, “Compounds and methods of use” (Ferro Therapeutics, Inc., priority 2018, dated 2021).

In one test the test system is A549. Briefly: Cell viability assay, A549 cells. The format is cell-based. To be noted: Homo sapiens, A549, Cell Line A549; read-out: IC50. Here is the method: Example 5: Inducer Compound Effect on Growth of A549 and KP4 Cells
Cell viability assay was performed to assess the potency of the compounds in cancer cell line KP4 (pancreatic ductal adenocarcinoma). Cells at a density of 1,000-10,000 cells/well were seeded in 96-well plates and incubated at 37° C. overnight. A series of 9 different concentrations of compound stocks (500×) were created by 3-fold serial dilution in DMSO. These compounds were further diluted in culture media and then added to cells so that the final DMSO concentration was equal to 0.25% or less. After 96 hours of incubation, 50 μL of CellTiter Glo reagent (Promega) was added to each well and luminescence was measured after 10 minutes using EnVision (PerkinElmer). All compounds were tested initially from 30 μM as the top concentration in duplicates (range of 4.6 nM-30 μM). […] Luminescence from cells treated with DMSO alone was set as Max and % of inhibition was calculated as follows: Inhibition %=(Max-Sample value)/Max*100. Data was analyzed using XL-fit software (ID Business Solutions Ltd.). IC50, relative IC50, or % of top inhibition was calculated. […]
For `C#CC(=O)N1[C@@H](c2ccc(C3CCOCC3)cc2)c2[nH]c3ccccc3c2C[C@@H]1C` [Compound 192], the IC50 came out at 14.2 µM.

`C#CC(=O)N1[C@@H](c2ccc(OC)cc2)c2[nH]c3ccccc3c2C[C@@H]1C` [Compound 193]: the IC50 stood at 13.3 µM.

In the case of `CC(C)=CC(=O)N1[C@@H](c2ccc(N3CCOCC3)cc2)c2[nH]c3ccccc3c2C[C@@H]1C` [Compound 225], the IC50 is > 30 µM.

Turning to `C=C(C)C(=O)N1[C@@H](c2ccc(N3CCOCC3)cc2)c2[nH]c3ccccc3c2C[C@@H]1C` [Compound 229], the half-maximal inhibitory concentration (IC50) was > 30 µM.

On to `C[C@H]1Cc2c([nH]c3ccccc23)[C@H](c2ccc(N3CCOCC3)cc2)N1C(=O)/C=C/C(F)(F)F` [Compound 230], for which the IC50 is 22 µM.

As for `C[C@H]1Cc2c([nH]c3ccc(C(C)(C)O)cc23)[C@H](c2ccc(N3CCOCC3)cc2)N1C(=O)CCl` [Compound 235], the IC50 stood at 7.18 µM.

Regarding `C[C@H]1Cc2c([nH]c3ccccc23)[C@H](c2ccc(C3(O)COC3)cc2)N1C(=O)CCl` [Compound 236], the IC50 was 17.5 µM.

Regarding `C[C@H]1Cc2c([nH]c3ccccc23)[C@H](c2ccc(C3(O)CCOCC3)cc2)N1C(=O)CCl` [Compound 237], the IC50 stood at 1.86 µM.

On to `C=CC(=O)N1[C@@H](c2ccc(N3CCOCC3)cc2)c2[nH]c3ccccc3c2C[C@@H]1C` [Compound 238], for which the IC50 is > 10 µM.

`CC(C)(C)OC(=O)c1ccc([C@H]2c3[nH]c4ccccc4c3C[C@H](CO)N2C(=O)CCl)cc1` [Compound 257]: the 50% inhibitory concentration (IC50) was found to be 8.14 µM.

As for `CN(C)C(=O)[C@H]1Cc2c([nH]c3ccccc23)[C@H](c2ccc(N)cc2)N1C(=O)CCl` [Compound 259], the IC50 came out at 7.97 µM.

For the molecule `COC(=O)[C@H]1Cc2c([nH]c3ccccc23)[C@H](c2ccc(C(=O)OC(C)(C)C)cc2)N1C(=O)C(C)(C)CCl` [Compound 264], the 50% inhibitory concentration (IC50) worked out at 4.45 µM.

Regarding `CC#CC(=O)N1[C@@H](c2ccc(C(=O)OC)cc2)c2[nH]c3ccccc3c2C[C@@H]1C(=O)OC` [Compound 272], the IC50 amounted to 6.45 µM.

As for `C=CC(=O)N1[C@@H](c2ccc(C(=O)OC)cc2)c2[nH]c3ccccc3c2C[C@@H]1C(=O)OC` [Compound 274], the IC50 amounted to 11.8 µM.

For `COCCOCCOCCOCCOC(=O)[C@H]1Cc2c([nH]c3ccccc23)[C@H](c2ccc(NC34CC5CC(CC(C5)C3)C4)cc2)N1C(=O)CCl` [Example 189], the IC50 came to 4.11 µM.

A further test deals with KP4. In words: Cell viability assay (CellTiter Glo), pancreatic ductal adenocarcinoma KP4. The class given is cell-based, human. As to conditions: Cell Line KP4; read-out: IC50. The method in brief:
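Luminescent ATP readout (CellTiter Glo) after 96 h compound exposure, normalized to DMSO-treated cells as maximum. Compounds ran in duplicate, nine 3-fold steps from 30 μM down to 4.6 nM, final DMSO ≤0.25%; KP4 plated overnight at 1,000–10,000 cells/well. Outputs: IC50, relative IC50 or % top inhibition.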
For `C[C@H]1Cc2c([nH]c3ccccc23)[C@H](c2ccc(C3(O)COC3)cc2)N1C(=O)CCl` [Compound 236], the IC50 is > 1 µM.

As to `CN(C)C(=O)[C@H]1Cc2c([nH]c3ccccc23)[C@H](c2ccc(N)cc2)N1C(=O)CCl` [Compound 259], the IC50 came to 0.212 µM.

The same test, now with this note: Homo sapiens, KP-4, Cell Line KP4; read-out: IC50.
With `C=C(C)C(=O)N1[C@@H](c2ccc(N3CCOCC3)cc2)c2[nH]c3ccccc3c2C[C@@H]1C` [Compound 229], the half-maximal inhibitory concentration (IC50) is > 30 µM.

Take `C[C@H]1Cc2c([nH]c3ccccc23)[C@H](c2ccc(N3CCOCC3)cc2)N1C(=O)/C=C/C(F)(F)F` [Compound 230]: the IC50 is > 30 µM.

As to `C[C@H]1Cc2c([nH]c3ccc(C(C)(C)O)cc23)[C@H](c2ccc(N3CCOCC3)cc2)N1C(=O)CCl` [Compound 235], the IC50 stood at 0.041 µM.

Consider `C[C@H]1Cc2c([nH]c3ccccc23)[C@H](c2ccc(C3(O)COC3)cc2)N1C(=O)CCl` [Compound 236], for which the IC50 was 1.2 µM.

Regarding `C[C@H]1Cc2c([nH]c3ccccc23)[C@H](c2ccc(C3(O)CCOCC3)cc2)N1C(=O)CCl` [Compound 237], the IC50 amounted to 0.458 µM.

For `C=CC(=O)N1[C@@H](c2ccc(N3CCOCC3)cc2)c2[nH]c3ccccc3c2C[C@@H]1C` [Compound 238], the IC50 was > 10 µM.

Turning to `CC(C)(C)OC(=O)c1ccc([C@H]2c3[nH]c4ccccc4c3C[C@H](CO)N2C(=O)CCl)cc1` [Compound 257], the IC50 stood at 10.4 µM.

For the molecule `CN(C)C(=O)[C@H]1Cc2c([nH]c3ccccc23)[C@H](c2ccc(N)cc2)N1C(=O)CCl` [Compound 259], the IC50 was 0.179 µM.

`COC(=O)[C@H]1Cc2c([nH]c3ccccc23)[C@H](c2ccc(C(=O)OC(C)(C)C)cc2)N1C(=O)C(C)(C)CCl` [Compound 264]: the IC50 is 8.69 µM.

For `CC#CC(=O)N1[C@@H](c2ccc(C(=O)OC)cc2)c2[nH]c3ccccc3c2C[C@@H]1C(=O)OC` [Compound 272], the half-inhibitory concentration (IC50) turned out to be 3.99 µM.

As to `C=CC(=O)N1[C@@H](c2ccc(C(=O)OC)cc2)c2[nH]c3ccccc3c2C[C@@H]1C(=O)OC` [Compound 274], the IC50 amounted to 4.54 µM.

The test system of the next test is 786-O. Briefly: Cell proliferation (Alamar Blue) assay, 786-O renal cell carcinoma, with/without ferrostatin. The class given is cell-based. To be noted: Homo sapiens, 786-0, Cell Line 786-O; read-out: IC50. Here is the method: (§1) Cell viability assay was performed to assess the potency of the compounds in human cancer cell lines 786-O (renal cell carcinoma) and SJSA-1 (osteosarcoma). Additional cell lines, such as those described above in Example 4 as well as various others, e.g., pancreatic cancer cell lines (Panc 02.13, BxPC-3, Panc 12, Panc 02.03, Panc 6.03, PSN-1, HPAC, and Capan-1) and prostate cancer cell lines (PC-3, DU145, 22Rv1, NCI-H660, BPH1, LNCaP, BM-1604, and MDA PCa 2b), were tested for select compounds as shown in Table 25.
(§2) Cells (SJSA-1, 786-O and A431) were seeded (5000 cells/100 μL/well) in 96-well tissue culture plate and incubated at 37° C./5% CO2 for 16-24 hours. The cells were then treated with compounds (25 μL of 5×). The compound concentrations were 10-0.0005 μM prepared in 3-fold serial dilutions with final DMSO concentration of 1%. The plates were then incubated for 24 h at 37° C./5% CO2 in a moist environment. Then Alamar Blue™ reagent (final concentration 1×-12.5 μL) was added to each well and incubated for 1.5 hours at 37° C./5% CO2. The plates were read on fluorescence reader at 540 nm excitation and 590 nm emission wavelengths. The IC50 values were subsequently determined using a sigmoidal dose-response curve (variable slope) in GraphPad Prism® 5 software.
(§3) Studies have shown that lipophilic antioxidants, such as ferrostatin, can rescue cells from GPX4 inhibition-induced ferroptosis. For instance, mesenchymal state GPX4-knockout cells can survive in the presence of ferrostatin, however, when the supply of ferrostatin is terminated, these cells undergo ferroptosis (see, e.g., Viswanathan et al., Nature 547:453-7, 2017). […] Accordingly, the ability of a molecule to induce ferroptotic cancer cell death, and that such ability is admonished by the addition of ferrostatin, is clear indication that the molecule is an GPX4 inhibitor.
Consider `C#CC(=O)N1[C@@H](c2ccc(C3CCOCC3)cc2)c2[nH]c3ccccc3c2C[C@@H]1C` [Compound 192], for which the IC50 turned out to be 0.194 µM.

As to `C#CC(=O)N1[C@@H](c2ccc(OC)cc2)c2[nH]c3ccccc3c2C[C@@H]1C` [Compound 193], the IC50 was 0.223 µM.

For the molecule `CC(C)=CC(=O)N1[C@@H](c2ccc(N3CCOCC3)cc2)c2[nH]c3ccccc3c2C[C@@H]1C` [Compound 225], the IC50 was > 10 µM.

A further test deals with SJSA-1. Briefly: Cell proliferation (Alamar Blue) assay, SJSA-1 osteosarcoma, with/without ferrostatin. The format is cell-based, human. As to conditions: Homo sapiens, SJSA-1, Cell Line SJSA-1; read-out: IC50. How it is done:
as §1, §2, §3
On to `C#CC(=O)N1[C@@H](c2ccc(C3CCOCC3)cc2)c2[nH]c3ccccc3c2C[C@@H]1C` [Compound 192], for which the IC50 came to 0.12 µM.

On to `C#CC(=O)N1[C@@H](c2ccc(OC)cc2)c2[nH]c3ccccc3c2C[C@@H]1C` [Compound 193], for which the IC50 is 0.175 µM.

Take `COCCOCCOCCOCCOC(=O)[C@H]1Cc2c([nH]c3ccccc23)[C@H](c2ccc(NC34CC5CC(CC(C5)C3)C4)cc2)N1C(=O)CCl` [Example 189]: the IC50 is 4.2 µM.
